In US12576047B2, “Telomerase activating compounds for use in fertility and related applications” (Neuromagen Pharma Ltd, priority 2017, dated 2026):

How the values were obtained:
[1] = test system: ICR mice; assay: Sperm count from the epididymis, with or without X-ray radiation; format: in vivo, mouse
Description: Toward this end, ICR mice (3 months old) were injected with 6 mg/kg of Compound 79, Compound 68 or Compound 70, or mice were subjected to X-ray radiation (2.5 Gy) followed by immediately injection of the respective compounds. Control mice were untreated or vehicle treated with or without exposure to X-ray radiation. […] Testes were also taken for immunohistochemical and immunofluorescence analysis with various spermatogenesis markers. Epididymis was also taken for sperm count.

[2] = test system: FSH; assay: FSH expression by RT-PCR in pituitary gland cells; format: cell-based, mouse; conditions: 50 nM
Description: FIGS. 29A, 29B, 29C and 29D: The embodied compounds affect the expression of gonadotropin hormones in pituitary gland cells. Cells (L T2) derived from the mouse pituitary gland were assessed for their secretion of LH and FSH at 6 (FIGS. 29A and 29B) and 12 hours (FIGS. 29C and 29D) following treatment with the indicated embodied compounds (50 nM). FSH and LH expression was determined by RT-PCR, and quantified from 5 different experiments, as assessed for significance, using the t test, one way ANOVA.

[3] = test system: mouse testes; assay: H&E histology of testes after X-ray radiation; format: in vivo; conditions: X-ray 2.5 Gy then injection, 12 hrs
Description: (§1) Toward this end, ICR mice (3 months old) were injected with 6 mg/kg of Compound 79, Compound 68 or Compound 70, or mice were subjected to X-ray radiation (2.5 Gy) followed by immediately injection of the respective compounds. Control mice were untreated or vehicle treated with or without exposure to X-ray radiation. The testes were removed 12 hrs after treatments and subjected to protein extracts or total RNA preparations for the examination of telomerase activity by TRAP assay, telomerase expression by Western blot and real time PCR. Testes were also taken for immunohistochemical and immunofluorescence analysis with various spermatogenesis markers. Epididymis was also taken for sperm count.

[4] = test system: mouse ovary; assay: Hematoxylin-eosin histology of mouse ovary; format: in vivo; conditions: for ovary histology: 6 mg/Kg single dose at Di-estrus stage; for ovary histology / ovary histology (follicles, granulosa cells): 12 hours; for ovary histology (follicles, granulosa cells): 6 mg/Kg single dose at met-estrus stage; for ovary histology (corpus luteum): 6 mg/Kg single dose at pro-estrus and estrus stages, 12 hrs
From the text: The ovaries were weighted; one was taken for protein extraction for measuring telomerase activity by TRAP assay, and the other one for the histological examination using hematoxylin-eosin staining of the ovary and its follicles.
The mice ovaries were removed and fixed with 4% paraformaldehyde overnight, dehydrated in increasing ethanol concentrations to xylene, and embedded in paraffin. A rotary microtome was used to produce 5 μm sections, which were mounted on Superfrost plus slides. The sections were dried and heated at 37° C. overnight and stored in dry place. Paraffin-embedded sections were deparaffinized in xylene and rehydrated in decreasing concentrations of ethanol. Then the sections stained with hematoxylin-eosin or subjected to immunochemical and Immunofluorescent assays [Liani-Leibson, K., I. Har-Vardi, and E. Priel, Inhibition of topoisomerase I by anti-cancer drug altered the endometrial cyclicity and receptivity. Curr Mol Med, 2014. 14(1): p. 141-50].

[5] = test system: CREM; assay: CREM expression in X-ray irradiated testis; format: in vivo, mouse; conditions: X-ray 2.5 Gy then injection, 12 hrs
Description: as §1

[6] = test system: sperm; assay: Sperm head morphology after X-ray radiation; format: in vivo, mouse; conditions: X-ray 2.5 Gy, single S.C. injection 6 mg/kg, 12 hours
Description: Three-month old mice were irradiated with X-ray (2.5 Gy) and treated with a single S.C. injection of 6 mg/kg of compound 68 or 70. Mice were sacrificed 12 hours later and sperm were removed from the epididymis and stained with eosin. The number of morphologically defective sperm (head morphology) were quantified and presented as a percentage value of the total sperm count (N=6 mice per group) (FIG. 26A). FIG. 26B provides a light micrograph showing healthy and defective sperm head morphology observed. The arrows labeled 1 and 2 point to defective sperm head morphology, and the arrows labeled 3 and 4 point to healthy sperm head morphology

[7] = test system: Steroidogenic acute regulatory protein (StAr); assay: StAr relative mRNA levels by qRT-PCR in granulosa cells; format: cell-based, rat; conditions: 50 nM for 6 hours
Description: (§2) Immortalized rat granulosa cells expressing FSH receptor were treated with either pregnant mare serum gonadotropin (PMSG), or the indicated compounds, or both for 6 hours. Protein extracts prepared from these cells served for telomerase activity measurement using a telomere repeat amplification protocol (TRAP) assay.
(§3) Briefly, protein extract incubated with oligonucleotide, which serves as a template for telomerase (TS), for 45 minutes at 30° C. followed by PCR with reverse primer (ACX) and internal control. PCR products were separated on 4.5% agarose gel. RNA extracts were used for cDNA synthesis and quantitative real time PCR with specific primers to Telomerase reverse transcriptase (TERT), Steroidogenic acute regulatory protein (StAr) and β-actin as a reference gene. To measure progesterone levels secreted by the cells, granulosa cells were cultured with or without 1 IU/mL PMSG and DMSO, Compound 79 50 nM or compound 70 50 nM in the presence of 100 nM dexamethasone. After 24 hours progesterone levels cell-culture medium were determined by radioimmunoassay (RIA). For cell proliferation measurement, 1×10^5 cells were seeded in a 96 wells plate with 1 IU/mL PMSG and DMSO, Compound 79 50 nM or Compound 70 50 nM. After 24 hours cells viability was measured by XTT proliferation assay.

[8] = target: T1, telomerase (Rattus norvegicus, UniProt Q673L6); assay: TRAP assay of telomerase activity in granulosa cells; format: cell-based; conditions: 50 nM and 200 nM for 6 hours
T1 construct: Protein extracts prepared from these cells served for telomerase activity measurement; endogenous in cells; host or cells: immortalized rat granulosa cells expressing FSH receptor
Description: as §2, §3

[9] = test system: female mice; assay: Progesterone levels in mouse serum; format: in vivo; conditions: compared to DMSO or UT, 12 hrs post treatment, P, E, and M stages
Description: Blood samples were taken from the sacrificed mouse and following centrifugation (3800 rpm, 10 min) the serum was sent to the clinical endocrinology laboratory (Soroka University Medical Center, Beer-Sheva, Israel) for determination of progesterone levels.

[10] = test system: Telomerase reverse transcriptase (TERT); assay: TERT relative mRNA levels by qRT-PCR in granulosa cells; format: cell-based, rat; conditions: 50 nM and 200 nM for 6 hours
Description: as §2, §3

T1 sequence (Q673L6 whole entry): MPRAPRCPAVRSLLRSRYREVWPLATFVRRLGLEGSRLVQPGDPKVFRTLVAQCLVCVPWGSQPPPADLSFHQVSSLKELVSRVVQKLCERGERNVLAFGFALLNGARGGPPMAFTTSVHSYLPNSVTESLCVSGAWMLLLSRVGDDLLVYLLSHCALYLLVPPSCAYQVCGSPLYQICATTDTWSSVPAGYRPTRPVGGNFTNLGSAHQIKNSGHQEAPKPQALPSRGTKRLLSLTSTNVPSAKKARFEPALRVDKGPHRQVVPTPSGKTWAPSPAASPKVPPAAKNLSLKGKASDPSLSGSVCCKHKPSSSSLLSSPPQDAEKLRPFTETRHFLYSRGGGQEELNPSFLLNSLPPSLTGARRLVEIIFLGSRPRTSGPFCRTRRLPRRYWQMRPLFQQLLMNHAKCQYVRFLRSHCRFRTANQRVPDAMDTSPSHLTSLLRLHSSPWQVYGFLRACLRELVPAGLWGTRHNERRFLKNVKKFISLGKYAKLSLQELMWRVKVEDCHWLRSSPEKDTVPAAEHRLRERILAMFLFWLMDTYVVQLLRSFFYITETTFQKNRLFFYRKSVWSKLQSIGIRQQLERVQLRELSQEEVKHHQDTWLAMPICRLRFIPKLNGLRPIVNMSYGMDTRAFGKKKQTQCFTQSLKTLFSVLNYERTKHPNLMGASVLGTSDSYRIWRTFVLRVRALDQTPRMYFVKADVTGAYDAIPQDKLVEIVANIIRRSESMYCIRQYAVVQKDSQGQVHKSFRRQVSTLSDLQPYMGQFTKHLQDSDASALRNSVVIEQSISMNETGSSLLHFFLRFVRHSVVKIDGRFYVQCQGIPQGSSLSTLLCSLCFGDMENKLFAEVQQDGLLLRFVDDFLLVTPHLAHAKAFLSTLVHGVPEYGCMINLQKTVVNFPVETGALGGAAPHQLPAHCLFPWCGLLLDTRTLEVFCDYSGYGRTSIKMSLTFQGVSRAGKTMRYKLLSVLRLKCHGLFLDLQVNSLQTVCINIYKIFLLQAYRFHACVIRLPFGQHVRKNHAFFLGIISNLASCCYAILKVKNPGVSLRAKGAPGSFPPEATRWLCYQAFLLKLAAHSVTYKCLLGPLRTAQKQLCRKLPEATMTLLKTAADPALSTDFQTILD

SMILES	sperm count ([1]; irradiated mice, 9 and 30 days post irradiation)	sperm cells number from the epididymis ([1]; non-irradiated mice, 12 hrs post treatment, compared to DMSO)	FSH expression ([2]; 6 hours, vs untreated)	morphology of testicular tissue (H&E) [3]	ovary histology [4]	ovary histology (follicles, granulosa cells) [4]	ovary histology (corpus luteum) [4]	CREM expression in testis [5]	number of defective sperm cells (head morphology) [6]	expression of StAr [7]	FSH expression ([2]; 12 hours)	telomerase activity (TRAP) [8]	increase in the secretion of progesterone [9]	TERT relative mRNA levels [10]
CC(c1cc(Br)c(O)c(Br)c1)(c1cc(Br)c(O)c(Br)c1)c1cc(Br)c(O)c(Br)c1 [Compound 68]	increased sperm count at 9 and 30 days post irradiation	a significant increase	decreased FSH expression relative to untreated samples	protected the spermatogonia cells layer from the damaging effects of X-ray and the morphology of the testicular tissue remained intact	a plurality of corpus luteum (CL)	more developed follicles (white arrow) and plurality of layers of granulosa cells (GC) around the oocytes	more corpus luteum (CL) than in the control group	restored the expression of the spermatogenesis markers	reduction in the number of defective sperm cells	–	–	–	–	–
CCOCc1cc(C(C)(c2cc(COCC)c(O)c(COCC)c2)c2cc(COCC)c(O)c(COCC)c2)cc(COCC)c1O [Compound 79]	–	–	–	–	multiple layers of granulosa cells (GC) around the oocytes	more developed follicles (white arrow) and plurality of layers of granulosa cells (GC) around the oocytes	more corpus luteum (CL) than in the control group	–	–	increased expression of StAr	decreased FSH levels	increased expression in a dose-dependent fashion	up to 5 folds	increased expression in a dose-dependent fashion
